# “And” between values parts separate entries of the source, which are not always exact repeats. Equal entries are not always repeated. Where two headings read alike, the source gives them in different places.
# Assay: Plasma pharmacokinetics of Compound I after single intraperitoneal dose in Swiss-Webster mice (Example 1)
# Format: in vivo
# Details: for concentration at 4 h: samples m.p. 10.x = 10th time point (4.0 h)
# Experimental: Example 1 provides a summary of three pharmacokinetic studies Compound I conducted in Swiss-webster mice. The pharmacokinetics of 5 mg/kg, 15 mg/kg and 50 mg/kg of Compound I via the intraperitoneal route were discussed.
# Compound I was prepared using the method described in the U.S. Publication 2012/0040932 A1. 100 mg of Compound I was dissolved in 30% 1N NaOH to ˜pH 5.0 as a stock solution. Compound I was further diluted in 0.9% saline to achieve target concentrations.
# The specifications for animals used on this study were as follows: • Species: Mouse • Strain: CFW (Swiss) • Gender: Female • Source: Harlan Laboratories (Livermore, Calif.) • Number of Animals: 33 for each dose • Body Weight Range: 18-22 g at the start of the study
# After acclimation, mice were administered a single intraperitoneal dose of Compound I at 5, 15, and 50 mg/kg. Groups of three mice were sacrificed at 0.08, 0.16, 0.25, 0.33, 0.5, 0.75, 1.0, 2.0, 3.0, and 4.0 h after dosing. Blood samples (one sample per animal) were collected by cardiac puncture in a heparin containing tube. Blood samples were centrifuged within 5 min of collection at 12000 g for 5 min to obtain plasma. The plasma samples were stored on −80° C. until analyzed.
# Compound I standard curves were prepared in plasma from 0.1 to 100 μg/mL. 50 μl aliquots of sample were placed in 1.5 mL microcentrifuge tubes. 20 μl of Compound II (10 μg/mL) was added as internal standard to each sample or standard. 20 μl of 30% trichloroacetic acid was then added to each sample or standard. The samples were mixed using a vortex mixer centrifuged for 10 min at 15,000 RPM using a tabletop centrifuge. The supernatant (approx. […]) was removed and added to 100 μl of water in a 96-well plate. The samples were mixed again using a vortex mixer. 10 μl of each sample was injected onto an HPLC-MS for quantification.
# The HPLC-MS conditions for plasma analysis are as follows: • Column: Phenomenex Fusion-RP or equivalent reversed-phase column, 5 um, 50×2 mm. • Flow rate: 0.6 mL/min. • Mobile phase A: 0.1% formic acid in water. • Mobile phase B: 0.1% formic acid in acetonitrile. • Gradient: 5-60% B in 1.5 min. • Mass spectrometer: Negative ion mode with electrospray ionization. • MS/MS: Compound I-Q1-m/e=296, Q3-m/e=234. • Compound II-Q1-m/e=331, Q3-m/e=201.
# Plasma concentrations were fit using a one compartment IV infusion model (WinNonlinVersion 5.3, Pharsight Corp, and Mountain View, Calif.).
# [1] = Swiss-Webster mice, plasma, 5 mg/kg intraperitoneal
# [2] = Swiss-Webster mice, plasma, 15 mg/kg intraperitoneal
# [3] = Swiss-Webster mice, plasma, 50 mg/kg intraperitoneal
# [4] = female, CFW (Swiss-Webster), mouse, ip, Swiss-Webster mice, plasma, 5 mg/kg intraperitoneal
# [5] = female, CFW (Swiss-Webster), mouse, ip, Swiss-Webster mice, plasma, 15 mg/kg intraperitoneal
# [6] = female, CFW (Swiss-Webster), mouse, ip, Swiss-Webster mice, plasma, 50 mg/kg intraperitoneal
compound,measurement,setting,value
O=C(O)C[C@@H]1CC[C@H](NC(=O)Cc2cccs2)B(O)O1 [Compound I],Linearity of pharmacokinetics,"Swiss-Webster mice, dose range of 5 to 50 mg/kg intraperitoneal",linear PK
same,AUC,[1],3100 ng·h/mL
same,Cl,[1],26.8 mL/min/kg
same,AUC,[2],8300 ng·h/mL
same,Cl,[2],30 mL/min/kg
same,AUC,[3],31400 ng·h/mL
same,Cl,[3],26.7 mL/min/kg
same,Cmax,[4],8260 ng/mL
same,half-life,[4],9.6 min
same,Cmax,[5],19500 ng/mL
same,half-life,[5],12 min
same,Cmax,[6],67100 ng/mL
same,half-life,[6],15 min
same,concentration at 0.08 h,"female, CFW (Swiss-Webster), mouse, plasma, ip, 5 mg/kg, mouse plasma, 5 mg/kg intraperitoneal, samples m.p. 1.x = 1st time point (0.08 h), individual animals, read-out: Calc. Conc. (plasma concentration)",5580 ng/mL
same,concentration at 0.5 h,"female, CFW (Swiss-Webster), mouse, plasma, ip, 5 mg/kg, mouse plasma, 5 mg/kg intraperitoneal, samples m.p. 5.x = 5th time point (0.5 h), individual animals, read-out: Calc. Conc. (plasma concentration)",1550 ng/mL
same,concentration at 4 h,"female, CFW (Swiss-Webster), mouse, plasma, ip, 5 mg/kg, mouse plasma, 5 mg/kg intraperitoneal, individual animals, read-out: Calc. Conc. (plasma concentration)",3.71 ng/mL
same,concentration at 0.08 h,"female, CFW (Swiss-Webster), mouse, plasma, ip, 15 mg/kg, mouse plasma, 15 mg/kg intraperitoneal, samples m.p. 1.x = 1st time point (0.08 h), individual animals, read-out: Calc. Conc. (plasma concentration)",16700 ng/mL
same,concentration at 0.16 h,"female, CFW (Swiss-Webster), mouse, plasma, ip, 15 mg/kg, mouse plasma, 15 mg/kg intraperitoneal, samples m.p. 2.x = 2nd time point (0.16 h), individual animals, read-out: Calc. Conc. (plasma concentration)",15500 ng/mL
same,concentration at 2 h,"female, CFW (Swiss-Webster), mouse, plasma, ip, 15 mg/kg, mouse plasma, 15 mg/kg intraperitoneal, samples m.p. 8.x = 8th time point (2.0 h), individual animals, read-out: Calc. Conc. (plasma concentration)",126 ng/mL
same,concentration at 4 h,"female, CFW (Swiss-Webster), mouse, plasma, ip, 15 mg/kg, mouse plasma, 15 mg/kg intraperitoneal, individual animals, read-out: Calc. Conc. (plasma concentration)",< 0 ng/mL
same,concentration at 0.08 h,"female, CFW (Swiss-Webster), mouse, plasma, ip, 50 mg/kg, mouse plasma, 50 mg/kg intraperitoneal, samples m.p. 1.x = 1st time point (0.08 h), individual animals, read-out: Calc. Conc. (plasma concentration)",34800 ng/mL
same,concentration at 0.16 h,"female, CFW (Swiss-Webster), mouse, plasma, ip, 50 mg/kg, mouse plasma, 50 mg/kg intraperitoneal, samples m.p. 2.x = 2nd time point (0.16 h), 5x dil., individual animals, read-out: Calc. Conc. (plasma concentration)",58900 ng/mL
same,concentration at 0.25 h,"female, CFW (Swiss-Webster), mouse, plasma, ip, 50 mg/kg, mouse plasma, 50 mg/kg intraperitoneal, samples m.p. 3.x = 3rd time point (0.25 h), 5x dil., individual animals, read-out: Calc. Conc. (plasma concentration)",64200 ng/mL
same,concentration at 0.75 h,"female, CFW (Swiss-Webster), mouse, plasma, ip, 50 mg/kg, mouse plasma, 50 mg/kg intraperitoneal, samples m.p. 6.x = 6th time point (0.75 h), individual animals, read-out: Calc. Conc. (plasma concentration)",19100 ng/mL
same,concentration at 3 h,"female, CFW (Swiss-Webster), mouse, plasma, ip, 50 mg/kg, mouse plasma, 50 mg/kg intraperitoneal, samples m.p. 9.x = 9th time point (3.0 h), individual animals, read-out: Calc. Conc. (plasma concentration)",181 ng/mL
same,Calc. Conc. (plasma concentration),"mouse plasma, 5 mg/kg intraperitoneal, samples m.p. 1.x = 1st time point (0.08 h), individual animals, 5 mg/kg",5.77 µg/mL and 4.84 µg/mL
same,Calc. Conc. (plasma concentration),"mouse plasma, 5 mg/kg intraperitoneal, samples m.p. 2.x = 2nd time point (0.16 h), individual animals, 5 mg/kg",9.68 µg/mL and 7.41 µg/mL and 3.49 µg/mL
same,Calc. Conc. (plasma concentration),"mouse plasma, 5 mg/kg intraperitoneal, samples m.p. 3.x = 3rd time point (0.25 h), individual animals, 5 mg/kg",9.08 µg/mL and 7.43 µg/mL and 3.8 µg/mL
same,Calc. Conc. (plasma concentration),"mouse plasma, 5 mg/kg intraperitoneal, samples m.p. 4.x = 4th time point (0.33 h), individual animals, 5 mg/kg",3.37 µg/mL and 1.01 µg/mL and 3.73 µg/mL

# Reference: patent US11007206B2, “Cyclic boronic acid ester derivatives and therapeutic uses thereof” (Melinta Subsidiary Corp., priority 2012, dated 2021)
